Read-outs that look alike come from different tables or passages of the source.
Key:
[1] = Stability of metal-DOTAM in blood (spontaneous Ca-DOTAM formation); assay type: in vitro ADME, mouse
Description: (§1) The initial choice for quenching was Cu, thus replacing unchelated DOTAM with quenched, non-competing Cu-DOTAM, and a large number of studies within the CEA-PRIT program were executed using this condition. However, it was later discovered that the Cu-DOTAM complex was, in fact, not stable in vivo, and a study was undertaken to assess its stability compared with alternative quenching ions in human and mouse serum, plasma, and blood.

[2] = as above; assay type: in vitro ADME, human
Description: as §1

SMILES | spontaneous Ca-DOTAM formation ([1]; mouse blood, 35 minutes p.i.) [%] | spontaneous Ca-DOTAM formation ([2]; human blood, 35 minutes p.i.) [%] | spontaneous Ca-DOTAM formation [1] | spontaneous Ca-DOTAM formation [2] [%]
NC(=O)CN1CCN(CC(N)=O)CCN(CC(N)=O)CCN(CC(N)=O)CC1.[Pb+2] [Pb-DOTAM] | 4 | 4 |  | 
NC(=O)CN1CCN(CC(N)=O)CCN(CC(N)=O)CCN(CC(N)=O)CC1.[Cu+2] [Cu-DOTAM] |  |  | approximately 25% | ~30
NC(=O)CN1CCN(CC(N)=O)CCN(CC(N)=O)CCN(CC(N)=O)CC1.[Zn+2] [Zn-DOTAM] |  |  | 0% | 0

Source: US20220031871A1, “ANTIBODIES FOR CHELATED RADIONUCLIDES AND CLEARING AGENTS” (Hoffmann-La Roche Inc., priority 2018, published 2022)
